Assays:
[1] = Plasma inositol isomers levels by glucose tolerance status (UHPLC-MSMS), withdrawn women from study 2; format: in vivo, human; settings: endogenous level; for Plasma inositol isomers levels, Mean: no administration; for plasma concentration in subjects with impaired glucose tolerance or type II diabetes in comparison to normal glucose tolerance / average plasma concentration in Asian subjects in comparison to Caucasian subjects: result in words; for average plasma concentration in Asian subjects in comparison to Caucasian subjects: subjects not having prediabetes or type II diabetes
Protocol: (§1) Only withdrawn women from this study 2 were included in this sub-study. Women were from UK (N=46), NZ (N=89), SG (N=117). All the data (anthropometric and biochemical parameters) were collected and measured. Plasma and urine inositol isomers were measured using a new validated UHPLC-MSMS method. Study 2 was approved by different Institutional Review Boards and the study design published (Godfrey K M et al, Trials. 2017 Mar. 20; 18(1):131.). Subjects were classified as normoglycemic (NGT), impaired glucose tolerance (IGT), and type 2 diabetic mellitus (T2DM) based upon the results of fasting glucose and the oral glucose tolerance test (OGTT). Subjects with 2-hours glucose were levels <7.8 mmol/L were considered as normal glucose tolerant (NGT), while those with 2-hour glucose between 7.8-11.1 mmol/L were deemed as having impaired glucose tolerance (IGT). Individuals with fasting plasma glucose (IFG) level 5.6 mmol/L) were classified as having impaired fasting glucose. Both IFG and IGT subjects were grouped together. Subjects with 2-hours glucose >11.1 mmol/L were considered as having type 2 diabetic mellitus (T2DM). NGT group was further divided into 2 sub-groups named NGT with a “favorable” metabolic risk profile (abbreviated NGT_fav) and NGT with an “unfavorable” metabolic risk profile (abbreviated NGT_Unfav) to take into account the hyperinsulinemia affecting subjects in the NGT group. Inclusion criteria for NGT subjects with a favorable risk profile (NGT_fav) were the following ones: BMI<25 for Caucasian and <23 for Asian subjects; waist <80 cm; waist/hip ratio […]; HOMA2-IR<1.21. IGT/IFG and T2DM subjects were also grouped together into a dysglycemic group. In total, […] were reported: NGT_all; NGT_fav; NGT_unfav; IGT/IFG and; T2DM.
(§2) Blood samples were collected into EDTA-containing tubes and spot urine samples were collected and frozen at −80° C. until analysis. For inositol isomers determination, analysis was performed on an Accela UHPLC (Thermo Fisher Scientific Inc., Waltham, Mass., USA) coupled to a TSQ Vantage triple quadrupole (Thermo Fisher Scientific Inc., Waltham, Mass., USA) equipped with a heated electrospray ionization (HESI) source in negative mode. Chromatographic separation was achieved using gradient elution on an UHPLC Acquity BEH Amide (1.7 μm, 2.1 mm×150 mm) column and guard column (Vanguard BEH Amide 1.7 μm, 2.1 mm×10 mm; Waters Corporation, Milford, Mass., USA) at 30° C. at a flow rate of 400 μL/min. Mobile phase consisted of 90% acetonitrile-NH4OH 0.04% (eluent A) and 50% acetonitrile-NH4OH 0.04% (eluent B). Column temperature was kept at 30° C. The injection volumes were 3 μL and 5 μL for urine and plasma respectively. Plasma samples were thawed and briefly vortexed before transferring 100 μL of the sample into a 1.5 mL microtube. 50 μL of [2H6]-myo-inositol, then 500 μL of ACN containing 1% of formic acid were added for protein precipitation. The tubes were vortexed for 1 min and centrifuged at 10,000×g for 3 min. Supernatants were transferred into an SPE Ostro 96 well plate for phospholipid removal. Positive pressure (about 8 psi) was applied for elution and the filtrates were then evaporate to dryness in a vacuum centrifuge (45° C., 5 mbar, 6 h). Dry residues were dissolved in 400 μL of water and transferred into a 0.45 μm centrifugal filter containing 175 mg of mixed bed ion exchange resin Amberlite MB-3. Tubes were spun at 3000×g for 2 min then the filtrates were evaporated to dryness in vacuum centrifuge at 45° C., 5 mbar for 2 h. Finally, residues were reconstituted in vials with 80 μL of ACN/water (60/40) and injected for analysis.
Statistical analysis was performed using R software (version 3.2.3). Mean and standard deviation were calculated. The statistical model used as covariate the glucose tolerance status, the ethnicity, the menstrual cycle, the age of the subjects and the BMI. For some statistical analysis some raw data were log transformed in view of their distribution. […]

[2] = Urinary inositol isomers excretion by glucose tolerance status (UHPLC-MSMS), withdrawn women from study 2; format: in vivo, human; settings: endogenous, spot urine
Protocol: as §1, §2
Urine samples were thawed and briefly vortexed before transferring 150 μL of sample into a 1.5-mL microtube. 100 μL of [2H6]-myo-inositol was added and the mixture was transferred into a 0.45 μm centrifugal filter containing 175 mg of mixed bed ion exchange resin Amberlite MB-3. […]

Row | SMILES | Plasma inositol isomers levels, Mean ([1]; IGT/IFG group, N=41 women) [µmol/L] | Plasma inositol isomers levels, Mean ([1]; NGT (all) group, N=182 women) [µmol/L] | Plasma inositol isomers levels, Mean ([1]; NGT_Fav group, N=63 women) [µmol/L] | Plasma inositol isomers levels, Mean ([1]; NGT_Unfav group, N=119 women) [µmol/L] | Plasma inositol isomers levels, Mean ([1]; T2DM group, N=26 women) [µmol/L] | Urinary inositol isomers excretion, Mean ([2]; IGT/IFG group) | Urinary inositol isomers excretion, Mean ([2]; NGT (all) group) | Urinary inositol isomers excretion, Mean ([2]; NGT_Fav group) | Urinary inositol isomers excretion, Mean ([2]; NGT_Unfav group) | Urinary inositol isomers excretion, Mean ([2]; T2DM group) | plasma concentration in subjects with impaired glucose tolerance or type II diabetes in comparison to normal glucose tolerance [1] | average plasma concentration in Asian subjects in comparison to Caucasian subjects [1]
1 | OC1C(O)C(O)C(O)C(O)C1O (stereo not shown) [Chiro-inositol] | 0.32 | 0.23 | 0.26 | 0.22 | 0.22 | 0.20 μmol/mmol of creatinine | 0.24 μmol/mmol of creatinine | 0.26 μmol/mmol of creatinine | 0.22 μmol/mmol of creatinine | 0.42 μmol/mmol of creatinine | – | –
2 | O[C@H]1[C@H](O)[C@@H](O)[C@H](O)[C@@H](O)[C@H]1O [Myo-inositol, cis-1,2,3,5-trans-4,6cyclohexanehexol] | 23.23 | 25.91 | 25.44 | 26.16 | 24.66 | 6.35 μmol/mmol of creatinine | 9.21 μmol/mmol of creatinine | 10.86 μmol/mmol of creatinine | 8.33 μmol/mmol of creatinine | 17.97 μmol/mmol of creatinine | lower | lower
3 | O[C@H]1[C@H](O)[C@@H](O)[C@H](O)[C@@H](O)[C@@H]1O [Scyllo-inositol, (1r,2r,3r,4r,5r,6r)-Cyclohexane-1,2,3,4,5,6-hexol] | 0.46 | 0.67 | 0.72 | 0.64 | 0.37 | 3.31 μmol/mmol of creatinine | 5.04 μmol/mmol of creatinine | 6.34 μmol/mmol of creatinine | 4.34 μmol/mmol of creatinine | 3.36 μmol/mmol of creatinine | lower | lower
